Test system: HSV-1 (strain SC16)
Assay: Virus yield reduction assay (plaque assay, Vero cell monolayers)
Assay type: cell-based
Description: African green monkey kidney cells (Vero) (ATCC CCL-81) were grown in Dulbecco's modified Eagle's medium (DMEM) supplemented with 10% fetal calf serum. HSV-1 (strain SC16), carrying a lacZ gene driven by the CMV IE-1 promoter to express β-galactosidase, was propagated on Vero cells monolayers.
For all experiments, peptides, dendrimers, and peptidodendrimers were dissolved in DMEM without serum and used at concentrations of 0, 5.5, 55, 280, and 550 nM. All experiments were conducted in triplicate. The percentage of infectivity inhibition was calculated by setting the number of plaques obtained in positive controls where no antiviral compounds were added to the cell monolayers to 0% inhibition.
Confluent Vero cell monolayers (12-well plates) were washed with phosphate-buffered saline (PBS) and infected with HSV-1 at multiplicity of infection (MOI) of 1 plaque-forming unit (pfu)/cell for 1 hour at 37° C. The virus inocula were mixed with the peptide/dendrimer/conjugate(s) to be tested, as described in Example 3 above. […] Plaques were stained with X-gal (5-bromo-4-chloro-3-indolyl-([…]-galactopyranoside) and microscopically counted. The mean plaque counts for each drug concentration were expressed as a percentage of the mean plaque count for the control virus. The number of plaques was plotted as a function of drug concentration. See FIG. 6. […]

| Sequence | antiviral activity relative to comparators (in words) (HSV-1 on Vero cells, FIGS. 6 and 18) | inhibitory concentration (range in words) (peptide alone vs peptide conjugated to dendrimer) |
| --- | --- | --- |
| AAHLIDALYAEFLGGRVLTT (SEQ ID NO: 53) (HSV-1 envelope glycoprotein-derived peptide) [PgH, Residues 493-512 of envelope glycoprotein H] | less active than gB8 |  |
| FARLQFTYNHIQRHVRDMEGR (SEQ ID NO: 23) (HSV-1 envelope glycoprotein-derived peptide) [gB8, Residues 503-523 of envelope glycoprotein B] |  | micromolar |

Source: patent US20160228565A1, “POLYAMIDE BASED PEPTID[…]” (New York University, priority 2014, published 2016)
